Assay [1] deals with T1, integrin α4β1 (Homo sapiens, UniProt P05556+P13612). As to the kind of experiment: Whole blood ligand displacement (receptor occupancy): biotinylated rhVCAM-1 binding to α4β7-negative Th memory cells. The settings on record: read-out: VCAM Competition IC50 (receptor occupancy). The class given is cell-based. The procedure:
Receptor occupancy (RO) in primary cells was determined by measuring the amount of biotinylated human recombinant MAdCAM-1-FC or human recombinant VCAM-1-Fc bound to selected cell populations using flow cytometry. Human recombinant MAdCAM-1-FC or human recombinant VCAM-1-FC (R&D systems) were biotinylated using commercially available reagents and protocol (Pierce). Whole blood was collected from human donors in sodium heparin tubes. […] Cells were washed twice with 1 mL of 1×DPBS calcium magnesium free(CMF) (ThermoFisher Scientific) and resuspended in 100 μL of DPBS CMF. […] Cells were washed with 1 mL stain buffer-FBS (BD Biosciences) and resuspended in 100 μl stain Buffer-FBS (BD Biosciences) containing 4 mM MnCl2. […] Cells were then washed with 1 mL stain buffer-FBS and resuspended in 100 μl stain buffer-FBS. The cells were incubated in the dark for 30 minutes at room temperature with 1 μl Streptavidin APC (Biolegend 0.2 mg/ml) and a panel of antibodies for the detection of memory T helper a4b7-positive cells subset. And amount of 5.0 μl each of the following antibodies were used; CD45 FITC (BioLegend 200 μg/ml), CD29 APC Cy7 (BioLegend 100 μg/ml), Integrin beta7 PE, (BioLegend concentration 50 μg/mL), CD49d […] (BioLegend 50 μg/mL), CD3 […] […] Cell population were determined using the following markers, CD45+, CD3+, CD4+, CD45RO+, CD49d+, integrin β7, biotinylated ligands.

Assay [2] deals with T1, integrin α4β1. As to the kind of experiment: Integrin α4β1-VCAM human cell adhesion assay (RAMOS cells). It counts as cell-based. Particulars: adhesion of RAMOS cells to VCAM-1 coated plates. More on the design: host or cells: RAMOS human cells. Here is the method:
Integrin α4β1-VCAM Human Cell Adhesion Assay
RAMOS human cells (ATCC CRL-1596) were cultured in RPMI 1640 medium (HyClone SH30027.1) supplemented with 10% FBS (Seradigm) and 1% Penicillin-Streptomycin. A 96-well plate (Costar, 3603) was coated with 100 μl/well of recombinant human VCAM-1 Fc Chimera (R&D systems, 862-VC-100) solution at 0.25 μg/ml in coating buffer (50 mM sodium carbonate, pH 9.6). The plate was incubated overnight at 4° C. and washed twice with […] per well wash buffer (0.05% Tween 20 in PBS), blocked with 250 μl per well blocking buffer (1% non-fat dry milk in PBS), for 1 hour at room temperature. During blocking step, RAMOS cells were resuspended at 10 million cells/ml in PBS containing […] and incubated at 37° C. for 30 min in a 50 ml tube. PBS was added to fill the tube, cells were spun down and resuspended in RPMI 1640 medium to 2 million/mi. Compounds were diluted by serial dilution in binding buffer (1.5 mM CaCl2, 0.5 mM MnCl2, 50 mM Tris-HCl, pH 7.5) to a final volume of 50 μl per well at 2× concentration. […] After last wash, 100 μL of PBS was added to wells and the fluorescence was read (Ex495/Em515) using a plate reader (Tecan Infinite 1000). To calculate the dose response, the fluorescence value of control wells not containing cells was subtracted from each test well.

Where “and” joins values, the source holds several entries; their conditions need not be identical. Equal values may be shown once. Numbered stars: 1 amine (or outer) side, 2 acyl side, 3 side chain; on linkers, the order of the positions; unused ones are H or OH. Square brackets hold non-standard residues; d marks the D form. Peptide text beside a SMILES is read from it. X1 = O=C(c1ccc(-c2ccc(N3CCNCC3)cc2)c(CN[*:1])c1)[*:2]

By IC50 is commonly meant the midpoint of a concentration-inhibition curve.

T1 sequence (P13612 34-1032): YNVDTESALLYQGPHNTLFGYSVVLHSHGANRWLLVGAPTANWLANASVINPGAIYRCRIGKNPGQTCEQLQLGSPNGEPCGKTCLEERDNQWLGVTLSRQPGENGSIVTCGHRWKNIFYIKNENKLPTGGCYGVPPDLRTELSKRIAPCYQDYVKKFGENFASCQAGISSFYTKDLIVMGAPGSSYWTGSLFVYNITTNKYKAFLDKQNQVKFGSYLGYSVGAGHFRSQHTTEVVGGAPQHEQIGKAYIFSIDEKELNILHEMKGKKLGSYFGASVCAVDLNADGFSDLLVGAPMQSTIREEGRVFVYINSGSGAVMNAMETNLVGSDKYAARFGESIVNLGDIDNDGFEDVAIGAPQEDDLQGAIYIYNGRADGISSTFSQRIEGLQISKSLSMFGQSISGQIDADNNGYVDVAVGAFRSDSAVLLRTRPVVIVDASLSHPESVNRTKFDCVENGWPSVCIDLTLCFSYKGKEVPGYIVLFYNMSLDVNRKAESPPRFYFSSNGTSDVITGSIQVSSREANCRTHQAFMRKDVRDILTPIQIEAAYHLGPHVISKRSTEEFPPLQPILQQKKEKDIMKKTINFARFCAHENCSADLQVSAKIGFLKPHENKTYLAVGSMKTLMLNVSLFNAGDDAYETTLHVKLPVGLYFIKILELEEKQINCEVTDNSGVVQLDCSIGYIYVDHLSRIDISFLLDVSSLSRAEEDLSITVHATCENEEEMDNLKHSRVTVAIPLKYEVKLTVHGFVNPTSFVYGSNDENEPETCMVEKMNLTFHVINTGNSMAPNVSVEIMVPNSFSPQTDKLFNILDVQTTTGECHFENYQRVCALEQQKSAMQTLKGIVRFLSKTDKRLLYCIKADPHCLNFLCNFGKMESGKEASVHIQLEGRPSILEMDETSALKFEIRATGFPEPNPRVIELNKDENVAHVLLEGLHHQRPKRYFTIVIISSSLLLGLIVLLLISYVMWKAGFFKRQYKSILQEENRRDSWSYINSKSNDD
T1 sequence (P05556 21-798): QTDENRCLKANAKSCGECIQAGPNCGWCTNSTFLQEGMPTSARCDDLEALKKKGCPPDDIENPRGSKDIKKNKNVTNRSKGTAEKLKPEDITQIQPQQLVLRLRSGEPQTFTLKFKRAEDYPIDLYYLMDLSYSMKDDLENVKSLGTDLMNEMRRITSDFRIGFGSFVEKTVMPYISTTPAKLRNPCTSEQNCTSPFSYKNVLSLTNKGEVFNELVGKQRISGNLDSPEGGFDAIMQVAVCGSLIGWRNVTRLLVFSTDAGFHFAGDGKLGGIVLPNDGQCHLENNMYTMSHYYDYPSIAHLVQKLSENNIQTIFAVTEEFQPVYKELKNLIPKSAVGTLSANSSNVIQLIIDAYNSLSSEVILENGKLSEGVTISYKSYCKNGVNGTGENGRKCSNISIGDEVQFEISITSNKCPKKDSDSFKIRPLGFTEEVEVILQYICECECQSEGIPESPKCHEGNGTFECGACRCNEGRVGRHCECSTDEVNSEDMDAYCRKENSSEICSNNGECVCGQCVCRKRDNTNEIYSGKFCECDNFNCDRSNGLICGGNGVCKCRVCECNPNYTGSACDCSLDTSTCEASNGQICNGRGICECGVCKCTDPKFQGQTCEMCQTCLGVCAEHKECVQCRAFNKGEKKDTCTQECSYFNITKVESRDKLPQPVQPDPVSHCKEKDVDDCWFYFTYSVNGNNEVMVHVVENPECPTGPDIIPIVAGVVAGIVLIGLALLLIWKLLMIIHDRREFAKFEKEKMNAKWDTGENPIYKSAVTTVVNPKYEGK

`CC(C)C[C@@H]1NC(=O)c2ccc(-c3ccc(N4CCNCC4)cc3)c(c2)CNC(=O)[C@@H]2CCCN2C(=O)[C@H](C)NC(=O)[C@H]([C@@H](C)O)NC(=O)[C@H](CC(=O)O)NC1=O` [Compound 8] (cyclo(P[X1]LDTA)): the 50% inhibitory concentration (IC50) at integrin α4β1 [1] is over 4000 nM; against integrin α4β1 [2], ~451 nM and 451 nM.
Take `CC(C)C[C@@H]1NC(=O)c2ccc(-c3ccc(N4CCN(Cc5cccc(CN6CCN(c7ccc(-c8ccc9cc8CNC(=O)[C@@H]8CCCN8C(=O)[C@H](C)NC(=O)[C@H]([C@@H](C)O)NC(=O)[C@H](CC(=O)O)NC(=O)[C@H](CC(C)C)NC9=O)cc7)CC6)c5)CC4)cc3)c(c2)CNC(=O)[C@@H]2CCCN2C(=O)[C@H](C)NC(=O)[C@H]([C@@H](C)O)NC(=O)[C@H](CC(=O)O)NC1=O` [Compound 18]: the values for the IC50 on integrin α4β1 [1] and at integrin α4β1 [2] were 123 nM and 184 nM, respectively.
